Patent publication US7759345B2, “Antitumoral derivatives of ET-743” (priority 2001, dated 2010)

Columns and labels:
HT-29 = assay: Inhibition of cells growth by colorimetric assay (SRB), HT-29; type: cell-based; conditions: SRB, 48 hours exposure; for GI50 / LC50 (concentration for 50% cell killing): Homo sapiens, HT-29, 48 h; for TGI HT-29 / GI50: HT-29; for GI50: read-out: GI50 HT-29; for LC50 (concentration for 50% cell killing): read-out: LC50 HT-29, HT-29
How it was run: (§1)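 Growth inhibition is measured by sulforhodamine B staining of TCA-fixed cells after 48 h of compound exposure across 10 to 10^−8 μg/ml. Cells are seeded at 5×10^3 per well and grown drug-free for 18 h beforehand; absorbance at 490 nm yields GI, TGI and LC values.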

SK-MEL-28 = assay: Inhibition of cells growth by colorimetric assay (SRB), SK-MEL-28; type: cell-based; conditions: SRB, 48 hours exposure; for GI50 / CC50: Homo sapiens, SK-MEL-28, 48 h; for GI50 / TGI MEL-28: MEL-28; for GI50: read-out: GI50 MEL-28; for CC50: read-out: LC50 MEL-28, MEL-28
How it was run: as §1

LoVo = assay: Inhibition of cells growth by colorimetric assay (SRB), LoVo; type: cell-based; conditions: SRB, 48 hours exposure; for GI50 / LC50 (concentration for 50% cell killing): Homo sapiens, LoVo, 48 h; for GI50 / TGI LOVO: LOVO; for GI50: read-out: GI50 LOVO; for LC50 (concentration for 50% cell killing): read-out: LC50 LOVO, LOVO
How it was run: as §1

LoVo-Dox = assay: Inhibition of cells growth by colorimetric assay (SRB), LoVo-Dox; type: cell-based; conditions: SRB, 48 hours exposure; for GI50 / CC50: Homo sapiens, 48 h; for GI50 / TGI LOVO-DOX: LOVO-DOX; for GI50: read-out: GI50 LOVO-DOX; for CC50: read-out: LC50 LOVO-DOX, LOVO-DOX
How it was run: as §1

A-549 = assay: Inhibition of cells growth by colorimetric assay (SRB), A-549; type: cell-based; conditions: SRB, 48 hours exposure; for GI50 / LC50 (concentration for 50% cell killing): Homo sapiens, A549, 48 h; for TGI A-549 / GI50: A-549; for GI50: read-out: GI50 A-549; for LC50 (concentration for 50% cell killing): read-out: LC50 A-549, A-549
How it was run: as §1

LNCaP = assay: Inhibition of cells growth by colorimetric assay (SRB), LNCaP; type: cell-based; conditions: SRB, 48 hours exposure; for CC50 / GI50: Homo sapiens; for CC50: LNCaP, 48 h, read-out: LC50 LNCAP, LNCAP; for GI50 / TGI LNCAP: LNCAP; for GI50: read-out: GI50 LNCAP
How it was run: as §1

DU-145 = assay: Inhibition of cells growth by colorimetric assay (SRB), DU-145; type: cell-based; conditions: SRB, 48 hours exposure; for GI50 / CC50: Homo sapiens, DU-145, 48 h; for TGI DU-145 / GI50: DU-145; for GI50: read-out: GI50 DU-145; for CC50: read-out: LC50 DU-145, DU-145
How it was run: as §1

K-562 = assay: Inhibition of cells growth by colorimetric assay (SRB), K-562; type: cell-based; conditions: SRB, 48 hours exposure; for GI50 / LC50 (50% cell killing): Homo sapiens, K562, 48 h; for GI50 / TGI K-562: K-562; for GI50: read-out: GI50 K-562; for LC50 (50% cell killing): read-out: LC50 K-562, K-562
How it was run: as §1

SK-BR-3 = assay: Inhibition of cells growth by colorimetric assay (SRB), SK-BR-3; type: cell-based; conditions: SRB, 48 hours exposure; for GI50 / CC50: Homo sapiens, SK-BR-3, 48 h; for GI50 / TGI SK-BR3: SK-BR3; for GI50: read-out: GI50 SK-BR3; for CC50: read-out: LC50 SK-BR3, SK-BR3
How it was run: as §1

SK-OV-3 = assay: Inhibition of cells growth by colorimetric assay (SRB), SK-OV-3; type: cell-based; conditions: SRB, 48 hours exposure; for GI50 / LC50: Homo sapiens, SK-OV-3, 48 h; for GI50 / TGI SK-OV3: SK-OV3; for GI50: read-out: GI50 SK-OV3; for LC50: read-out: LC50 SK-OV3, SK-OV3
How it was run: as §1

PANC-1 = assay: Inhibition of cells growth by colorimetric assay (SRB), PANC-1; type: cell-based; conditions: SRB, 48 hours exposure; for GI50 / LC50 (concentration for 50% net cell kill): Homo sapiens, PANC-1, 48 h; for GI50 / TGI PANC-1: PANC-1; for GI50: read-out: GI50 PANC-1; for LC50 (concentration for 50% net cell kill): read-out: LC50 PANC-1, PANC-1
How it was run: as §1

HMEC1 = assay: Inhibition of cells growth by colorimetric assay (SRB), HMEC1; type: cell-based; conditions: SRB, 48 hours exposure; for GI50 / LC50: Homo sapiens, HMEC-1, 48 h; for TGI HMEC-1 / GI50: HMEC-1; for GI50: read-out: GI50 HMEC-1; for LC50: read-out: LC50 HMEC-1, HMEC-1
How it was run: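 48 h SRB cytotoxicity assay; compound range 10–10^−8 μg/ml; seeding 5×10^3 cells/well, 18 h pre-attachment; OD 490 nm; GI, TGI, LC from triplicate means ± SD.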

IGROV-1 = assay: Inhibition of cells growth by colorimetric assay (SRB), IGROV-1; type: cell-based; conditions: SRB, 48 hours exposure; for GI50 / CC50: Homo sapiens, IGROV-1, 48 h; for GI50 / TGI IGROV: IGROV; for GI50: read-out: GI50 IGROV; for CC50: read-out: LC50 IGROV, IGROV
How it was run: as §1

IGROV-ET = assay: Inhibition of cells growth by colorimetric assay (SRB), IGROV-ET; type: cell-based; conditions: SRB, 48 hours exposure; for GI50 / CC50: Homo sapiens, 48 h; for GI50 / TGI IGROV-ET: IGROV-ET; for GI50: read-out: GI50 IGROV-ET; for CC50: read-out: LC50 IGROV-ET, IGROV-ET
How it was run: as §1

Description for Heart: (§2) Toxicity was asssessed by the methods reported in Toxicology in Vitro, 15 (2001) 571-577, J. Luber Narod et al.: “Evaluation of the use of in vitro methodolodies as tools for screening new compounds for potential in vivo toxicity”.
Description for Kidney: as §2
Description for Liver: as §2
Description for Myelo: as §2
Description for Skeletal: as §2

For `COc1cc2c(cc1OC)[C@@]1(CS[C@@H]3c4c(OC(C)=O)c(C)c5c(c4[C@H](COC1=O)N1C3[C@H]3c4c(cc(C)c(OC)c4O)C[C@@H]([C@@H]1O)N3C)OCO5)NCC2` (stereo partly shown) [Compound 67], the “Toxicity Data Heart” value (Heart) was 4.54E-08, the “TGI HT-29” value (HT-29) was 5.59E-09 and the GI50 (HT-29) was 0.741 nM. It also gave an LC50 (concentration for 50% cell killing) (HT-29) of 12900 nM, a GI50 (SK-MEL-28) of 0.411 nM and a CC50 (SK-MEL-28) of 6.24 nM. For the same molecule, the “TGI MEL-28” value (SK-MEL-28) was 9.90E-10, the GI50 (LoVo) was 0.602 nM and the LC50 (concentration for 50% cell killing) (LoVo) was 17.7 nM. The “TGI LOVO” value (LoVo) was 3.34E-09, the GI50 (LoVo-Dox) was 4.21 nM and the CC50 (LoVo-Dox) was 12800 nM. The “TGI LOVO-DOX” value (LoVo-Dox) was 3.65E-08, the “TGI A-549” value (A-549) was 3.63E-09 and the GI50 (A-549) was 1.31 nM. It also gave an LC50 (concentration for 50% cell killing) (A-549) of 10.1 nM, a CC50 (LNCaP) of 0.844 nM and a GI50 (LNCaP) of 0.307 nM. The “TGI LNCAP” value (LNCaP) was 5.09E-10, the “TGI DU-145” value (DU-145) was 8.61E-10 and the GI50 (DU-145) was 0.433 nM. It also gave a CC50 (DU-145) of 4470 nM, a GI50 (K-562) of 0.118 nM and an LC50 (50% cell killing) (K-562) of 0.8 nM. For the same molecule, the “TGI K-562” value (K-562) was 2.85E-10, the GI50 (SK-BR-3) was 0.394 nM and the CC50 (SK-BR-3) was 7.48 nM. The “TGI SK-BR3” value (SK-BR-3) was 1.11E-09, the GI50 (SK-OV-3) was 0.385 nM and the LC50 (SK-OV-3) was 7940 nM. For the same molecule, the “TGI SK-OV3” value (SK-OV-3) was 8.52E-10, the GI50 (PANC-1) was 0.443 nM and the LC50 (concentration for 50% net cell kill) (PANC-1) was 2670 nM. The “TGI PANC-1” value (PANC-1) was 1.09E-09, the “TGI HMEC-1” value (HMEC1) was 8.49E-09 and the GI50 (HMEC1) was 1.02 nM. The LC50 (HMEC1) was 5050 nM, the “Toxicity Data Myelo” value (Myelo) was 3.27E-08 and the “Toxicity Data Kidney” value (Kidney) was 5.36E-08. For the same molecule, the GI50 (IGROV-1) was 0.266 nM, the CC50 (IGROV-1) was 1.21 nM and the “TGI IGROV” value (IGROV-1) was 5.67E-10. The “Toxicity Data Liver” value (Liver) was 3.20E-08, the “Toxicity Data Skeletal” value (Skeletal) was 2.37E-08 and the GI50 (IGROV-ET) was 1.88 nM. For the same molecule, the CC50 (IGROV-ET) was 4960 nM and the “TGI IGROV-ET” value (IGROV-ET) was 7.02E-09.

In the case of `COc1cc2c(cc1OC(=O)c1cc3ccccc3oc1=O)CCN[C@]21CS[C@@H]2c3c(OC(C)=O)c(C)c4c(c3[C@H](COC1=O)N1C2[C@H]2c3c(cc(C)c(OC)c3O)C[C@@H]([C@@H]1O)N2C)OCO4` (stereo partly shown) [Compound 76], the “Toxicity Data Heart” value (Heart) is reported as 1.62E-08, the “TGI HT-29” value (HT-29) is reported as 6.18E-09 and the GI50 (HT-29) is reported as 1.28 nM. The LC50 (concentration for 50% cell killing) (HT-29) was 4520 nM, the GI50 (SK-MEL-28) was 0.622 nM and the CC50 (SK-MEL-28) was 8.28 nM. For the same molecule, the “TGI MEL-28” value (SK-MEL-28) was 2.51E-09, the GI50 (LoVo) was 1.03 nM and the LC50 (concentration for 50% cell killing) (LoVo) was 10.8 nM. The “TGI LOVO” value (LoVo) was 3.30E-09, the GI50 (LoVo-Dox) was 13.9 nM and the CC50 (LoVo-Dox) was 107 nM. For the same molecule, the “TGI LOVO-DOX” value (LoVo-Dox) was 4.70E-08, the “TGI A-549” value (A-549) was 4.31E-09 and the GI50 (A-549) was 2.06 nM. The LC50 (concentration for 50% cell killing) (A-549) was 9.07 nM, the CC50 (LNCaP) was 0.891 nM and the GI50 (LNCaP) was 0.217 nM. The “TGI LNCAP” value (LNCaP) was 4.40E-10, the “TGI DU-145” value (DU-145) was 6.16E-10 and the GI50 (DU-145) was 0.249 nM. It also gave a CC50 (DU-145) of 2140 nM, a GI50 (K-562) of 0.00278 nM and an LC50 (50% cell killing) (K-562) of 0.351 nM. For the same molecule, the “TGI K-562” value (K-562) was 3.78E-11, the GI50 (SK-BR-3) was 0.337 nM and the CC50 (SK-BR-3) was 6.17 nM. The “TGI SK-BR3” value (SK-BR-3) was 1.24E-09, the GI50 (SK-OV-3) was 0.293 nM and the LC50 (SK-OV-3) was 4810 nM. For the same molecule, the “TGI SK-OV3” value (SK-OV-3) was 8.93E-10, the GI50 (PANC-1) was 1.22 nM and the LC50 (concentration for 50% net cell kill) (PANC-1) was 44.1 nM. The “TGI PANC-1” value (PANC-1) was 4.68E-09, the “TGI HMEC-1” value (HMEC1) was 6.55E-09 and the GI50 (HMEC1) was 1.83 nM. For the same molecule, the LC50 (HMEC1) was 186 nM, the “Toxicity Data Myelo” value (Myelo) was 8.19E-09 and the “Toxicity Data Kidney” value (Kidney) was 3.20E-09. The GI50 (IGROV-1) was 0.192 nM, the CC50 (IGROV-1) was 1.66 nM and the “TGI IGROV” value (IGROV-1) was 4.56E-10. The “Toxicity Data Liver” value (Liver) was 1.35E-08, the “Toxicity Data Skeletal” value (Skeletal) was 2.15E-09 and the GI50 (IGROV-ET) was 1.52 nM. The CC50 (IGROV-ET) was 21 nM and the “TGI IGROV-ET” value (IGROV-ET) was 3.92E-09.
